Where “and” joins values, the source holds several entries; their conditions need not be identical. Identical values can stand only once.
What was measured:
L1210 cells [1] = test: cells; conditions: for IC50: read-out: IC50 (concentration inhibiting by 50% the viability of L1210 leukemic cells), day 4, Table 2 series; for inhibitory effect on L1210 cell viability: 256 nM, 4 days
Protocol: (§1) FIG. 1. […] For tumor cell growth and viability, L1210 cells were respectively seeded in triplicate at initial densities of 1×10^4 and 1.11×10^4 cells/0.5 ml/well in RPMI 1640 medium containing 7.5% FCS and penicillin (100 IU/ml)-streptomycin (100 μg/ml), and grown for 4 days in the presence or absence (control) of 256 nM concentrations of the indicated compounds in a humidified incubator at 37° C. with 5% CO2 in air. Cell density was monitored using a Coulter counter. […] The ability of viable cells/0.5 ml to bioreduce 0.1 ml of MTS:PMS (20:1) reagent over a 3-h incubation period at 37° C. was assessed by measuring the absorbamce of the water-soluble formazan products at A490 nm.
FIG. 4. […] Cells were seeded in triplicate at initial densities of 100,000 or 11,100 cells/0.5 ml/well and respectively incubated for 2 or 4 days in the presence or absence (control) of the indicated concentrations of drugs, which are plotted on a logarithmic scale. The ability of viable cells/0.5 ml to bioreduce 0.1 ml of MTS:PMS (20:1) reagent over a 3-h incubation period was assessed as described in FIG. 1.
(§2) TT0 was purchased from Aldrich (Milwaukee, Wis.). All solutions of synthetic TTs and tricyclic pyrone H10, vincristine (VCR; a gift from Lilly Researeh Laboratories, Indianapolis, Ind.) and camptothecin (CPT; from Sigma Chemical Co., St Louis, Mo.) were dissolved and diluted in dimethyl sulfoxide (DMSO), whereas daunomycin (DAU) (from Sigma) solutions were prepared in 0.1 M potassium phosphate buffer, pH 7.4, containing 0.9% NaCl. Suspension cultures of murine L1210 lymphocytic leukemia cells (American Type Culture Collection, Rockville, Md.) were maintained in continuous exponential growth by twice-a-week passage in RPMI 1640 medium supplemented with 7.5% fortified bovine calf serum (FCS; HyClone Laboratories, Logan, Utah) and penicillin (100 IU/ml)-streptomycin (100 μg/ml), and incubated in the presence or absence of drugs at 37° C. in a humidified atmosphere containing 5% CO2. […] Control cells incubated in the absence of drugs were similarly treated with vehicle only and, in every experiment, all incubates received the same volume of solvent. For drug removal, incubates were spun at 200×g for 10 min, drug-containing supernatants were discarded, and intact cells were washed thrice with 1 ml of the above RPMI 1640 culture medium and resuspended in 0.5 ml of fresh medium for further incubation.
L1210, HL-60-S, HL60-RV and HL-60-R8 cells suspended in FCS-containing RPMI 1640 medium were grown in 48-well Costar cell culture plates for up to 4 days in the presence or absence of drugs to evaluate drug cytotoxicity.

L1210 cells [2] = test: L1210 tumor cell proliferation assay (Coulter counter); conditions: for inhibitory effect on L1210 cell growth: 256 nM, 4 days
Protocol: as §1
FIG. 3. […] The protocol of the experiment was identical to that of FIG. 1. […] Drug concentrations are plotted on a logarithmic scale.
as §2
For tumor cell growth, L1210 cells were resuspended in fresh FCS-containing RPMI 1640 medium, plated at an initial density of 1×10^4 cells/0.5 ml, and incubated in 48-well Costar cell culture plates (Costar, Cambridge, Mass.). Except when otherwise specified, cells were grown for 4 days in the presence or absence of drugs and their density was monitored every 24 h using a Coulter counter (Coulter Electronics, Luton Beds, UK).

L1210 cells [3] = test: DNA cleavage (intact chromatin precipitation) in L1210 cells; type: cell-based, murine
Protocol: FIG. 19. Comparison of the concentration-dependent effects of novel TT analogs and known DNA-damaging anticancer drugs on DNA cleavage in L1210 cells in vitro. […] After lysing the cells in HLB containing 0.2% Triton X-100, the detergent-soluble DNA fragments present in the supernatants and the intact chromatin DNA remaining in the pellets were separated by centrifugation and their radioactivity estimated by LSC. Results are expressed as [cpm in supernatant/cpm in supernatant+pellet]×100 at 24 h. For untreated controls (5.3±0.6% DNA fragmentation; striped area), the supernatant is 741±79 cpm and the pellet is 13,293±1,446 cpm.
FIG. 20. Comparison of the abilities of novel TT analogs to induce DNA cleavage in L1210 cells in vitro. Cells containing prelabeled DNA were incubated at 37° C. for 24 h in the presence or absence (control) of 7 μM concentrations of the indicated compounds. The protocol of the experiment and the determination of the results were identical to those of FIG. 12.
FIG. 22. Irreversibility of the effects of novel TT analogs and known DNA-damaging anticancer drugs on DNA cleavage in L1210 cells in vitro. Cells containing prelabeled DNA were incubated at 37° C. for various periods of time in the presence or absence (control) of 10 μM TT1 or TT2 and 1.6 μM DAU or CPT. The protocol of the experiment and the determination of the results at 24 h were identical to those of FIG. 19, except that the drugs were either maintained in the medium for the whole 24-h period of incubation (open) or removed after the first 3 (striped) and 8 h (closed). After spinning and washing the appropriate samples to remove the drugs, cells were resuspended in 0.5 ml of fresh medium to complete the 24-h period of incubation in the absence of drugs. Vehicle-treated controls were similarly spun and washed at 3 and 8 h. Bars: means±SD (n=3).
Drug-induced DNA cleavage was determined by intact chromatin precipitation, using L1210, HL-60-S, HL-60-RV and HL-60-R8 cells which were prelabeled with 1 μCi of ^3H-thymidine for 2 h at 37° C., washed with 3×1 ml of ice-cold PBS, collected by centrifugation, and resuspended in fresh FCS-containing RPMI 1640 medium at a density of about 1×10^6 cells/0.5 ml for L1210 and 0.5×10^6 cells/0.5 ml for HL cells. Except when otherwise specified, such cells containing prelabeled DNA were then exposed for 24 h to TTs and drugs known to induce DNA fragmentation. After centrifugation at 200×g for 10 min to discard the drugs and wash the cells, the intact cell pellets were lysed for 30 min in 0.5 ml of HLB, centrifuged at 12,000×g for 30 min to collect the supernatants, and resuspended in 0.5 ml of HLB. After another similar centrifugation, the radioactivities in the pooled supernatants (detergent-soluble low molecular weight DNA fragments) and the pellet (intact chromatin DNA) were determined by LSC: % DNA fragmentation=[cpm in supernatant/cpm in supernatant+pellet]×100. Before being counted in 6 ml of Bio-Safe NA, the intact pelleted chromatin was incubated for 2 h at 60° C. in the presence of 0.6 ml of NCS tissue solubilizer (Amersham).

L1210 cells [4] = test: Mitotic index of L1210 cells; type: cell-based, murine; conditions: 24-h treatment; 0.2 μM VCR, 1 μM H10 (FIG. 18)
Protocol: FIG. 18. Effects of the novel TT analog TT2 and DAU on the mitotic index of L1210 cells in vitro. […] Cells (10^6/0.5 ml of RPMI 1640 medium) were incubated in triplicate for 24 h at 37° C. in the presence or absence (control) of 0.256, 0.64, 1.6 and 4 μM TT2, 0.256, 0.64 and 1.6 μM DAU, 0.2 μM VCR or 1 μM H10. After fixation with MeOH:acetic acid (3:1) and staining with 0.1% crystal violet, about 500 cells/slide were scored for mitotic figures and the mitotic index was expressed as the % of mitotic cells in drug-treated cultures divided by the % of mitotic cells in non-treated controls. The mean % of mitotic cells in control at 24 h was 1.86±0.43%.
L1210 cells (about 1×10^6/0.5 ml of FCS-containing RPMI 1640 medium) were incubated in triplicate for 24 h at 37° C. in the presence or absence of TTs or known antimitotic drugs, and collected by centrifugation at 200×g for 10 min to determine their mitotic index. For hypotonic treatment, cells were resuspended in 1 ml of 75 mM KCl for 20 min at 4° C. After fixation in 1 ml of MeOH:acetic acid (3:1), the final cell pellets were collected by centrifugation, resuspended in 75 μl of MeOH:acetic acid (3:1), dispensed onto glass slides, air dried, and stained by spreading 40 μl of 0.1% crystal violet under a coverslip. The % of cells in mitosis was determined microscopically by counting 500 cells/slides. The mitotic index was calculated as the % of mitotic cells in drug-treated cultures divided by the % of mitotic cells in non-treated controls.

[5] = Water solubility (stated in words); type: physicochemical
[6] = system: Plasmodium falciparum 3D7; test: Antimalarial activity, inhibition of Plasmodium falciparum 3D7; type: cell-based; conditions: malaria strain 3D7
[7] = target: Malaria protease plasmepsin II (Plasmodium falciparum, UniProt P46925); test: Inhibition of malaria protease plasmepsin II; type: biochemical
Sequence of Malaria protease plasmepsin II (P46925 125-453): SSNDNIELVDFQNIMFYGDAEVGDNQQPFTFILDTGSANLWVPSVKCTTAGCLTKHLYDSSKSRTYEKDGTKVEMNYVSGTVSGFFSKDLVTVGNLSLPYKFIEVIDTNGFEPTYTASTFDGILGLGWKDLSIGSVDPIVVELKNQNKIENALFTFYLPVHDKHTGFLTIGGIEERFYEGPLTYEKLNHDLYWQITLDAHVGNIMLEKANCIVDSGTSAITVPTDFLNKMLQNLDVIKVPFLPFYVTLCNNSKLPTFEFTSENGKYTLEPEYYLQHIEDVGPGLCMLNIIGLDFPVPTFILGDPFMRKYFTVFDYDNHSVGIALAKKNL

O=C(O)CCNC1=C(Br)C(=O)C2=C(C1=O)C1C3=C(C(=O)C=CC3=O)C2c2ccccc21 (stereo not drawn) [Compound 13, N-(2-Bromo-9,10-dihydro-1,4,5,8-tetraoxo-9,10-[1,2]benzenoanthracene-3-yl)-3-aminopropanoic acid]
IC50 (L1210 cells [1]): 1480 nM

COC(=O)[C@@]12C(=O)C=CC(=O)[C@@H]1C1c3ccccc3C2c2c(OC)ccc(OC)c21 (relative stereo) [TT11, (4aR*,9aR*)-5,8-Dimethoxy-4a-methoxycarbonyl-9,9a,10-trihydro-9,10-[1′,2′]benzenoanthracene-1,4-dione]
inhibitory effect on L1210 cell viability (L1210 cells [1]): marginal | inhibitory effect on L1210 cell growth (L1210 cells [2]): marginal | DNA cleavage (% DNA fragmentation) (L1210 cells [3]; 7 μM, 24 h, control 5%): 7%

CC[C@]1(O)C[C@H]2CN(CCc3c([nH]c4ccccc34)[C@@](C(=O)OC)(c3cc4c(cc3OC)N(C=O)[C@H]3[C@@](O)(C(=O)OC)[C@H](OC(C)=O)[C@]5(CC)C=CCN6CC[C@]43[C@@H]65)C2)C1 [VCR, vincristine, reference compound]
increase in the mitotic index (L1210 cells [4]): 16 fold

CC(C)(C)OC(=O)CCNC1=C(Br)C(=O)C2=C(C1=O)C1C3=C(C(=O)C=CC3=O)C2c2ccccc21 (stereo not drawn) [Compound 12, 2-Bromo-3-[2-(t-butoxycarbonyl)ethylamino]-9,10-dihydro-9,10-[1,2]benzenoanthracene-1,4,5,8-tetraone]
IC50 (L1210 cells [1]): 310 nM

O=C(O)CCNC1=C(O)C(=O)C2=C(C1=O)C1C3=C(C(=O)C=CC3=O)C2c2ccccc21 (stereo not drawn) [TT21]
water solubility [5]: water soluble

9,10-Dihydro-9,10-[1′,2′]benzenoanthracene-1,4,5,8-tetraone [TT1]
DNA fragmentation at 24 h after short exposure (L1210 cells [3]; 10 μM, drug removed after 3 and 8 h): 36-45% | DNA cleavage (% DNA fragmentation) (L1210 cells [3]; 10 μM, whole 24 h): 45% and 40%

CCOC(=O)CCNC1=C(Br)C(=O)C2=C(C1=O)C1C3=C(C(=O)C=CC3=O)C2c2ccccc21 (stereo not drawn) [TT17, 2-Bromo-3-[2-(ethoxycarbonyl)ethylamino]-9,10-dihydro-9,10-[1′,2′]benzenoanthracene-1,4,5,8-tetraone]
IC50 (L1210 cells [1]): 240 nM

CC(C)c1nc(CN(C)C(=O)N[C@H](C(=O)N[C@@H](Cc2ccccc2)C[C@H](O)[C@H](Cc2ccccc2)NC(=O)OCc2cncs2)C(C)C)cs1 [ritonavir, reference compound]
IC50 ([6]; Plasmodium falciparum): 9700 nM

c1ccc2c(c1)C1c3ccccc3C2c2ccccc21 [TT0, triptycene]
activity against macromolecule synthesis and growth of L1210 cells (L1210 cells [2]; in vitro): inactive

CC[C@@]1(O)C(=O)OCc2c1cc1n(c2=O)Cc2cc3ccccc3nc2-1 [CPT, camptothecin, reference compound]
DNA cleavage (% DNA fragmentation) (L1210 cells [3]; 1.6 μM, 24 h): 57% | DNA fragmentation at 24 h, drug maintained or removed (L1210 cells [3]; 1.6 μM, maintained or removed after 3 or 8 h): 51-58% | Emax (L1210 cells [3]; Mus musculus, L1210, concentrations of CPT higher than 1.6 μM, 24 h, read-out: DNA cleavage, plateau of maximal stimulation): 60 to 70%

COC(=O)C1=CC(=O)[C@H]2C3c4ccccc4C(c4c(OC)ccc(OC)c43)[C@H]2C1=O (relative stereo) [TT10, (4aS*,9aR*)-5,8-Dimethoxy-2-methoxycarbonyl-4a,9,9a,10-tetrahydro-9,10-[1′,2′]benzenoanthracene-1,4-dione]
inhibitory effect on L1210 cell viability (L1210 cells [1]): weak | inhibitory effect on L1210 cell growth (L1210 cells [2]): weak

COC1=C(Br)C(=O)C2=C(C1=O)C1C3=C(C(=O)C=CC3=O)C2c2ccccc21 (stereo not drawn) [TT13, 2-Bromo-3-methoxy-9,10-dihydro-9,10-[1′,2′]benzenoanthracene-1,4,5,8-tetraone]
IC50 (L1210 cells [1]): 291 nM

CNC1=C(Br)C(=O)C2=C(C1=O)C1C3=C(C(=O)C=CC3=O)C2c2ccccc21 (stereo not drawn) [TT14, 2-Bromo-3-(methylamino)-9,10-dihydro-9,10-[1′,2′]benzenoanthracene-1,4,5,8-tetraone]
IC50 (L1210 cells [1]): 430 nM | IC50 [6]: 4700 nM | IC50 [7]: 9700 nM
